Experimental data: ChEMBL document CHEMBL4425190, “Rat intestinal sucrase inhibited by minor constituents from the leaves and twigs of Archidendron clypearia (Jack.) Nielsen” (Bioorg Med Chem Lett, 2016)

Experiments:
[1] = molecular target: Sucrase-isomaltase, intestinal (Rattus norvegicus) (UniProt P23739); test: Inhibition of rat small intestinal sucrase using sucrose as substrate assessed as amount of liberated glucose at 1 mM after 30 mins by glucose oxidase method
[2] = molecular target: Sucrase-isomaltase, intestinal (Rattus norvegicus) (UniProt P23739); conditions: 0.02 mM
Description: Inhibition of rat small intestinal sucrase using sucrose as substrate assessed as amount of liberated glucose at 0.02 mM after 30 mins by glucose oxidase method

Sequence of Sucrase-isomaltase, intestinal (Rattus norvegicus) (P23739 1-1013 limits assumed): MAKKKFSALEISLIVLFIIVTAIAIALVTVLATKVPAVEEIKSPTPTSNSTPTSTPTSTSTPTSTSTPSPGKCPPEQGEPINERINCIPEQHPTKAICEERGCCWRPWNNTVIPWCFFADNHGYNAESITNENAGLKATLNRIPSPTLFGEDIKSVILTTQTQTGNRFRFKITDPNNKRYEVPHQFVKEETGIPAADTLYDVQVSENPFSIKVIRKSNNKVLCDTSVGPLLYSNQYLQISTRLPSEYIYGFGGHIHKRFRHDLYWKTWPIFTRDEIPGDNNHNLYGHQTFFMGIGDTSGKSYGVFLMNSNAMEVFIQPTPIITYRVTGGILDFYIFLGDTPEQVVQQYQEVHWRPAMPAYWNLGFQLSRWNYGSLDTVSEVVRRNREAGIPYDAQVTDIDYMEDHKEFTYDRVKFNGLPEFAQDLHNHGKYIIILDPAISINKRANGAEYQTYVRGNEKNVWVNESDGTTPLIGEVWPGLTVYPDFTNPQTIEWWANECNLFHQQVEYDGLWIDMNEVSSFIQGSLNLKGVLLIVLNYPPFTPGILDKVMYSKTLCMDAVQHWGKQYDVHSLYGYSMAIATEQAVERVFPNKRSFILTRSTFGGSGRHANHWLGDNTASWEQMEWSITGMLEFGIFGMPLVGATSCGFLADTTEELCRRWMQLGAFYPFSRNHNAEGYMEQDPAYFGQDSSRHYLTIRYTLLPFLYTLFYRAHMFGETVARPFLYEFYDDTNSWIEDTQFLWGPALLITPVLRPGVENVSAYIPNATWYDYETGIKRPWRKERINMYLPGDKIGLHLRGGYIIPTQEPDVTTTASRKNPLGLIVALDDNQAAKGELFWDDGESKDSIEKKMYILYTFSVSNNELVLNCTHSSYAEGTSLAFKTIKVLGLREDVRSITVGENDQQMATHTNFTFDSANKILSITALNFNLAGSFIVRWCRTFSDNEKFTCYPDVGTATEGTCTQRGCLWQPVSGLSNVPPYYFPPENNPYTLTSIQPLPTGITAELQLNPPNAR
Sequence of Sucrase-isomaltase, intestinal (Rattus norvegicus) (P23739 1014-1841 limits assumed): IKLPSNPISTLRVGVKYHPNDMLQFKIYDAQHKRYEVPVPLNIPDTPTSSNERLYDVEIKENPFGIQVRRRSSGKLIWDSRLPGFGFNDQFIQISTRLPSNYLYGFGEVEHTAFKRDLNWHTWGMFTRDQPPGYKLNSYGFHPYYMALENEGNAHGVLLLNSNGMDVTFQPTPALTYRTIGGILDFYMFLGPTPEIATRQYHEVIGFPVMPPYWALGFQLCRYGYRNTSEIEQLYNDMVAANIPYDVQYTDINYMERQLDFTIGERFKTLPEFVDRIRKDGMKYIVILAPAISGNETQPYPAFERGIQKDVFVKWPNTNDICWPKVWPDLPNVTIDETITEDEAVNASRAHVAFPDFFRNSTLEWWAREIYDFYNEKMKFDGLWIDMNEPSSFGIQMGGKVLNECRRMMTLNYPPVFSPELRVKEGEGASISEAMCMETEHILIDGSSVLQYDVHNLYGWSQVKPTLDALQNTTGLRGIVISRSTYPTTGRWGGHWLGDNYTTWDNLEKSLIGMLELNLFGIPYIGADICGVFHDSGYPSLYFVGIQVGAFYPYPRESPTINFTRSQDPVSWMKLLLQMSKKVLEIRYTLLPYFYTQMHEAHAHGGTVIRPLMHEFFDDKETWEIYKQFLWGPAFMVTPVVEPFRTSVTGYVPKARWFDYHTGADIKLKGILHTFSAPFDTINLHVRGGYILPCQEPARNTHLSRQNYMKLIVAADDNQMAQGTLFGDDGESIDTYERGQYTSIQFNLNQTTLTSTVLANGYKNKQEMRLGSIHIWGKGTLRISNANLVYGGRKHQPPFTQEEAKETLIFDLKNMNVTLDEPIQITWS

Structure (SMILES)	inhibition [1]	inhibition [2]
COc1cc(/C=C/CO)cc(OC)c1O[C@H]1O[C@H](CO)[C@@H](O)[C@H](O)[C@H]1O	14.6%	–
COc1cc(C[C@H]2CO[C@H](c3cc(OC)c(O)c(OC)c3)[C@H]2CO[C@@H]2O[C@H](CO)[C@@H](O)[C@H](O)[C@H]2O)cc(OC)c1O	81.6%	–
CC1=CC(=O)CC(C)(C)[C@@]1(O)/C=C/[C@@H](C)O[C@@H]1O[C@H](CO[C@@H]2OC[C@](O)(CO)[C@H]2O)[C@@H](O)[C@H](O)[C@H]1O	35.1%	–
COc1cc(/C=C/CO)cc(O[C@@H]2O[C@H](CO)[C@@H](O)[C@H](O)[C@H]2O[C@@H]2OC[C@](O)(CO)[C@H]2O)c1OC	31.3%	–
C[C@](O)(CC(=O)O)CC(=O)O[C@@H]1[C@@H](O)[C@H](OCc2ccccc2)O[C@H](CO)[C@H]1O	88.4%	–
CC(=O)OC[C@H]1O[C@@H](O[C@H](C)/C=C/[C@@]2(O)C(C)=CC(=O)CC2(C)C)[C@H](O)[C@@H](O)[C@@H]1O	29.8%	–
COc1cc([C@H]2c3c(cc(OC)c(O)c3OC)C[C@H](CO)[C@H]2CO[C@@H]2O[C@H](CO)[C@@H](O)[C@H](O)[C@H]2O)cc(OC)c1O	10.8%	–
COc1cc([C@H]2OC[C@H]3[C@@H]2CO[C@@H]3c2ccc(O)c(OC)c2)ccc1O	51.3%	–
CC1=CC(=O)CC(C)(C)C1/C=C/[C@@H](C)O[C@@H]1O[C@H](CO[C@@H]2OC[C@](O)(CO)[C@H]2O)[C@@H](O)[C@H](O)[C@H]1O (stereo not given in full)	13.6%	–
COc1cc([C@@H]2c3c(cc(OC)c(O)c3OC)C[C@H](CO)[C@H]2CO[C@@H]2O[C@H](CO)[C@@H](O)[C@H](O)[C@H]2O)cc(OC)c1O	66.3%	–
COc1cc(/C=C/CO)ccc1O[C@@H]1O[C@H](CO)[C@@H](O)[C@H](O)[C@H]1O	11%	–
COc1cc([C@H]2c3c(cc(OC)c(O)c3OC)C[C@H](CO)[C@H]2CO)cc(OC)c1O	57.5%	–
CC1=CC(=O)CC(C)(C)[C@@]1(O)/C=C/[C@@H](C)O[C@@H]1O[C@H](CO)[C@@H](O)[C@H](O)[C@H]1O	23.7%	–
N#C[C@H](O[C@@H]1O[C@H](CO[C@@H]2O[C@H](CO)[C@@H](O)[C@H](O)[C@H]2O)[C@@H](O)[C@H](O)[C@H]1O)c1ccccc1	50.4%	–
C[C@H]1O[C@H](O[C@H]2[C@H](O)[C@@H](O)[C@@H](O[C@H]3[C@H](O)[C@@H](O)C(O)O[C@@H]3CO)O[C@@H]2CO)[C@H](O)[C@@H](O)[C@@H]1N[C@H]1C=C(CO)[C@@H](O)[C@H](O)[C@H]1O (stereo not given in full)	–	89.5%
